Measurements as given in patent US9271987B2, “Methods and compositions for treating Alzheimer's disease” (Cold Spring Harbor Laboratory, priority 2011, dated 2016).
Entries after “also recorded” stand apart in the source; their conditions may differ.

How the values were obtained:
[1] = system: Tg(APPswe.PSEN1dE9) double transgenic mice; assay: Morris water maze in AD-model double transgenic mice; type: in vivo, mouse; details: for Rescue of memory loss in Morris water maze: 8-month-old mice, lavage once daily from 9 days before training until end of experiments (18 days)
[2] = system: Aβ42-expressing flies (elav-Gal4/Y; UAS-Aβ42/+); assay: Pavlovian olfactory associative immediate memory in Aβ42-expressing flies after drug feeding
Method: Flies were raised and maintained at room temperature (22-24° C.).

human EGFR = target: T1, human EGFR (Homo sapiens, UniProt P00533); assay: p-EGFR level in COS-7 cells transfected with human EGFR wt (Western blot); type: cell-based; details: 15 min; for Level of p-EGFR or activated EGFR after Aβ42 application: 25 μg/ml Aβ42 preparation
T1 construct: expressed in transfected cells; host or cells: COS-7 (monkey kidney), Lipofectamine 2000, plasmid from Dr. Parsons
Method: COS-7 cells were transfected with human EGFR^wt plasmid for 48 h, then incubated with 25 μg/ml oligomeric Aβ42 preparation for 15 min. Human EGF (0.5 μg/ml) for positive control. N=3.
COS-7 cells were cultured in normal Dulbecco's Modified Eagle Medium (D-MEM) containing 10% fetal bovine serum (Invitrogen) at 37° C. in 5% CO2. […] Transfection as performed following the Lipofectamine 2000 manuals (Invitrogen). After 48 h, cells were washed with fresh medium once and incubated with 10 or 25 μg/ml Aβ42 oligomers for 15 min at 37° C. in 5% CO2. 0.5 μg/ml human EGF (Sigma) was used as a positive control. Cells were then washed with PBS for 3 times and collected.
Whole fly head or cells lysates were prepared using a RIPA buffer containing 0.3% SDS, 50 mM Tris-HCl, pH 7.4, 0.5% NP-40, 1% sodium deoxycholate, 150 mM NaCl, 5 mM EDTA, 1 tablet per 50 ml complete protease inhibitor cocktail (Roche Diagnostics). Lysates were diluted in an SDS sample buffer and separated on 10-20% Tris-Tricine gels (Invitrogen), and transferred to nitrocellulose membranes (Invitrogen). The membranes were boiled in PBS for 3 min, blocked with 5% non-fat dry milk and blotted with a first antibody. First antibodies used herein included mouse anti-Aβ42 (6E10, Covance Research Products), mouse anti-dEGFR (Abcam), rabbit anti-hEGFR (Cell Signaling), mouse anti-hEGFR-p (Cell Signaling) and rabbit anti-Actin (Sigma). Data were analyzed with the ImageJ software (National Institutes of Health).

[3] = EGFR inhibitor 0.01, 0.1, 1, 10 μg/ml, fed 4 hours each day for 7 days, 10-day-old Aβ42-expressing males

Compound | Rescue of memory loss in Morris water maze [1] | Aβ42-induced memory loss (immediate memory) [2, 3] | Level of p-EGFR or activated EGFR after Aβ42 application (human EGFR) | other results
CC12CC3CC(C)(C1)CC(N)(C3)C2 [memantine] | unable to improve the memory-loss phenotype | – | – | Rescue of memory loss in Morris water maze ([1]; listed as Mem): No improvement in memory; Rescue of memory loss in Morris water maze ([1]; listed as momentine): had no effect; Aβ42-induced memory loss (immediate memory) ([2]; memantine 20 μg/ml, fed 4 hours each day for 7 consecutive days, memory at day 10 post-eclosion, male flies): capable of preventing the memory loss
C#Cc1cccc(Nc2ncnc3cc(OCCOC)c(OCCOC)cc23)c1 [Er, N-(3-ethynylphenyl)-6,7-bis(2-methoxyethoxy)quinazolin-4-amine] | – | prevented the memory loss | – | –
Aβ42 from oligomeric preparation: Synthetic and recombinant wild type Aβ42 (AnaSpec) incubated at 4° C. for 24 h to form oligomers | – | – | significantly elevated | Expression levels of EGFRs after Aβ42 application (human EGFR; 25 μg/ml Aβ42 from oligomeric preparation): not affected
monomeric Aβ42 preparation: Aβ42 peptide preparation abundant in monomers | – | – | opposite effect | –
COc1cc2ncnc(Nc3ccc(F)c(Cl)c3)c2cc1OCCCN1CCOCC1 [Ge, N-(3-chloro-4-fluoro-phenyl)-7-methoxy-6-(3-morpholin-4-ylpropoxy)quinazolin-4-amine] | sufficient to rescue the memory loss; also recorded: rescuing effects were observed | prevented the memory loss | – | Effect of two-month drug feeding on memory loss ([1]; drug feeding from 6- to 8-month-old): produced a positive effect
